Measurements taken from patent US20230263822A1, “MODULATION OF FACTOR 11 EXPRESSION” (Ionis Pharmaceuticals, Inc., priority 2008, published 2023).
Strand notation (5' to 3'): a small letter for the sugar, then the base; units joined by * are phosphorothioate-linked, units joined directly phosphodiester-linked; [ ] holds rarer units or linkages, { } end groups; capitals alone tell only the bases. e = 2'-O-(2-methoxyethyl) (MOE); [5mC] = 5-methylcytosine; d = 2'-deoxy (DNA)

Tests used:
[1] = system: Factor 11 mRNA; assay: Factor 11 mRNA in cynomolgus monkey liver, day 55 (Example 46); format: in vivo, cynomolgus monkeys; conditions: for % inhibition of Factor 11 mRNA in liver relative to the PBS control: 25 mg/kg subcutaneously, primer probe set LTS00301; for Factor 11 mRNA in liver vs PBS control: cynomolgus monkeys, 25 mg/kg
Experimental: Groups, each consisting of two male and two female monkeys, were injected subcutaneously with 25 mg/kg of ISIS 416850, ISIS 449709, ISIS 445522, ISIS 449710, ISIS 449707, ISIS 449711, ISIS 449708, 416858, and ISIS 445531. Antisense oligonucleotide was administered to the monkeys at 25 mg/kg three times per week for week 1 and 25 mg/kg twice per week for weeks 2 to 8. A control group, consisting of two male and two female monkeys was injected subcutaneously with PBS according to the same dosing regimen. Body weights were taken 14 days and 7 days before the start of treatment and were then measured weekly throughout the treatment period. Blood samples were collected 14 days and 5 days before the start of treatment and subsequently several times during the dosing regimen for PT and aPTT measurements, and measurement of various hematologic factors. On day 55, the monkeys were euthanized by exsanguination while under deep anesthesia, and organs harvested for further analysis.
On day 55, RNA was extracted from liver tissue for real-time PCR analysis of Factor 11 using primer probe set LTS00301. Results are presented as percent inhibition of Factor 11, relative to PBS control.

[2] = system: human Factor 11 mRNA; assay: Dose-dependent inhibition of human Factor 11 in HepG2 cells, electroporation 0.7-20 uM (Example 4); format: cell-based; conditions: for percent inhibition of Factor 11 at 0.7 μM / percent inhibition of Factor 11 at 2.2 μM / percent inhibition of Factor 11 at 6.7 μM / percent inhibition of Factor 11 at 20 μM: relative to untreated control cells
Method in brief: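 HepG2 cells electroporated with antisense gapmers at 0.7, 2.2, 6.7 and 20 μM, treated ~16 h. Factor 11 mRNA quantified by qRT-PCR (primer probe set RTS 2966), normalised to RIBOGREEN total RNA; expressed as percent inhibition versus untreated control cells.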

[3] = system: human Factor 11 mRNA; assay: Dose-dependent inhibition of human Factor 11 in HepG2 cells, lipofectin 9.375-75 nM (Example 4); format: cell-based; conditions: for percent inhibition of Factor 11 at 9.375 nM / percent inhibition of Factor 11 at 18.75 nM / percent inhibition of Factor 11 at 37.5 nM / percent inhibition of Factor 11 at 75 nM: relative to untreated control cells
Method in brief: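 HepG2 cells transfected via lipofectin with antisense oligonucleotide at 9.375, 18.75, 37.5 or 75 nM for about 16 h. Factor 11 mRNA quantified by real-time RT-PCR (primer probe set RTS 2966) and normalized to total RNA (RIBOGREEN). Results expressed as percent inhibition versus untreated cells.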

[4] = system: human Factor 11 mRNA; assay: Antisense inhibition of human Factor 11 in HepG2 cells by microwalk gapmers, lipofectin, 75 nM (Example 3); format: cell-based; conditions: HepG2 cells, lipofectin, gapmers targeted to nucleobases 1275 to 1318 of SEQ ID NO: 1
Method in brief: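 HepG2 cells (10,000/well) were transfected via lipofectin with 75 nM 20-mer MOE gapmers (phosphorothioate, 5-methyl-C) for about 24 h. Factor 11 mRNA was measured by qRT-PCR, normalized to RIBOGREEN total RNA, and given as percent inhibition versus untreated cells.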

416850 (antisense TGCACAGTTTCTGGCAGGCC; 5-10-5 gapmer, further chemistry not given here) [compound 416850]
% inhibition of Factor 11 mRNA in liver relative to the PBS control [1]: 68% | IC50 [2]: 3.4 µM | percent inhibition of Factor 11 at 0.7 μM [2]: 14% | percent inhibition of Factor 11 at 2.2 μM [2]: 25% | percent inhibition of Factor 11 at 6.7 μM [2]: 81% | percent inhibition of Factor 11 at 20 μM [2]: 91% | IC50 [3]: 0.029 µM | percent inhibition of Factor 11 at 9.375 nM [3]: 4% | percent inhibition of Factor 11 at 18.75 nM [3]: 30% | percent inhibition of Factor 11 at 37.5 nM [3]: 67% | percent inhibition of Factor 11 at 75 nM [3]: 84% | % inhibition [4]: 93%

416858 (antisense ACGGCATTGGTGCACAGTTT; 5-10-5 gapmer, further chemistry not given here) [compound 416858]
% inhibition of Factor 11 mRNA in liver relative to the PBS control [1]: 89% | IC50 [2]: 5.3 µM | percent inhibition of Factor 11 at 0.7 μM [2]: 5% | percent inhibition of Factor 11 at 2.2 μM [2]: 20% | percent inhibition of Factor 11 at 6.7 μM [2]: 56% | percent inhibition of Factor 11 at 20 μM [2]: 86% | IC50 [3]: 0.033 µM | percent inhibition of Factor 11 at 9.375 nM [3]: 0% | percent inhibition of Factor 11 at 18.75 nM [3]: 28% | percent inhibition of Factor 11 at 37.5 nM [3]: 54% | percent inhibition of Factor 11 at 75 nM [3]: 82% | % inhibition [4]: 93%

ISIS 416858: MOE gapmer, nucleobases 1275 to 1318 of SEQ ID NO: 1 (Table 8) (antisense ACGGCATTGGTGCACAGTTT; MOE gapmer, wing and gap sizes not given here)
Factor 11 mRNA in liver vs PBS control [1]: significant reduction of Factor 11 mRNA

ISIS 445522: 5-8-5 or 6-8-6 MOE microwalk gapmer (Table 44) (antisense eG*e[5mC]*eA*e[5mC]*eA*dG*dT*dT*dT*d[5mC]*dT*dG*dG*e[5mC]*eA*eG*eG*e[5mC])
Factor 11 mRNA in liver vs PBS control [1]: significant reduction of Factor 11 mRNA

ISIS 445531: 5-8-5 or 6-8-6 MOE microwalk gapmer (Table 44) (antisense eG*eG*e[5mC]*eA*eT*dT*dG*dG*dT*dG*d[5mC]*dA*d[5mC]*eA*eG*eT*eT*eT)
Factor 11 mRNA in liver vs PBS control [1]: significant reduction of Factor 11 mRNA

ISIS 449707: 3-8-3, 4-8-4, 2-10-2, 3-10-3 or 4-10-4 MOE microwalk gapmer (Table 46) (antisense e[5mC]*eA*e[5mC]*eA*dG*dT*dT*dT*d[5mC]*dT*dG*dG*e[5mC]*eA*eG*eG)
Factor 11 mRNA in liver vs PBS control [1]: significant reduction of Factor 11 mRNA

ISIS 449708: 3-8-3, 4-8-4, 2-10-2, 3-10-3 or 4-10-4 MOE microwalk gapmer (Table 46) (antisense eA*e[5mC]*eA*dG*dT*dT*dT*d[5mC]*dT*dG*dG*e[5mC]*eA*eG)
Factor 11 mRNA in liver vs PBS control [1]: significant reduction of Factor 11 mRNA

ISIS 449709: 3-8-3, 4-8-4, 2-10-2, 3-10-3 or 4-10-4 MOE microwalk gapmer (Table 46) (antisense eG*e[5mC]*eA*e[5mC]*dA*dG*dT*dT*dT*d[5mC]*dT*dG*dG*d[5mC]*eA*eG*eG*e[5mC])
Factor 11 mRNA in liver vs PBS control [1]: significant reduction of Factor 11 mRNA

ISIS 449710: 3-8-3, 4-8-4, 2-10-2, 3-10-3 or 4-10-4 MOE microwalk gapmer (Table 46) (antisense e[5mC]*eA*e[5mC]*dA*dG*dT*dT*dT*d[5mC]*dT*dG*dG*d[5mC]*eA*eG*eG)
Factor 11 mRNA in liver vs PBS control [1]: significant reduction of Factor 11 mRNA
